Measured values as given in patent US5430062A, “Stilbene derivatives as anticancer agents” (priority 1993, dated 1995).
Values joined by “and” are separate entries in the source; they are usually repeats but may differ in a detail not shown here. Equal entries are not always repeated. “Also recorded” adds a separate entry of the source. Where two headings read alike, the source gives them in different places.

Assays:
[1] = tested on: A-549 lung carcinoma; test: MTT cytotoxicity assay, A-549; settings: Homo sapiens, A549, […]
[2] = tested on: tubulin; test: Inhibition of tubulin polymerization (turbidimetry); assay type: biochemical, bovine; settings: for increase in IC50 / loss of activity in tubulin polymerization: relative to the parent 5a (8a, 5b) or 8a (12a)
[3] = tested on: MLM melanoma; test: MTT cytotoxicity assay, MLM; settings: […]
[4] = tested on: tubulin; test: Inhibition of [3H]colchicine binding to tubulin (DEAE-filter); parameters: species or system bovine; settings: 1 μM tubulin, 5 μM [3H]colchicine, 5 μM inhibitor, 10 min, 37° C.
[5] = tested on: MCF-7 breast carcinoma; test: MTT cytotoxicity assay, MCF-7; settings: Homo sapiens, MCF7, […]
[6] = tested on: SKMEL-5 melanoma; test: MTT cytotoxicity assay, SKMEL-5; settings: Homo sapiens, SK-MEL-5, […], read-out: Cytotoxicity ED50, SKMEL-5
[7] = tested on: HT-29 colon adenocarcinoma; test: MTT cytotoxicity assay, HT-29; settings: Homo sapiens, HT-29, […]
[8] = tested on: five cancer cell cultures; test: MTT cytotoxicity assay, five cancer cell cultures taken together; settings: for cytotoxicity (in words): five cancer cell lines
[9] = read-out: Cytotoxicity ED50, A-549
[10] = first series (Table VIII and text), 37° C., 20 min, read-out: Tubulin polymerization IC50 (±S.D.)
[11] = read-out: Cytotoxicity ED50, MLM
[12] = read-out: Cytotoxicity ED50, MCF-7
[13] = read-out: Cytotoxicity ED50, HT-29
[14] = read-out: cytotoxicity ED50, five cancer cell lines
[15] = read-out: cytotoxicity ED50, in at least three cell lines
[16] = second series (Tables V-VII, IX), read-out: Inhibition of Tubulin Polymerization IC50 (±S.D.)

Compound | IC50 [1, 9] | inhibition of tubulin polymerization (in words) [2] | IC50 [2, 10] | increase in IC50 / loss of activity in tubulin polymerization [2] | IC50 [3, 11] | Colchicine binding % inhibition [4] | IC50 [5, 12] | IC50 [6] | IC50 [7, 13] | IC50 [8, 14] | IC50 [8, 15] | cytotoxicity (in words) [8] | IC50 [2, 16] | IC50 ([8]; read-out: cytotoxicity ED50) | IC50 ([1]; read-out: Cytotoxicity ED50, A-549, A-549, MTT, six days) | IC50 ([3]; read-out: Cytotoxicity ED50, MLM, MLM, MTT, six days) | IC50 ([5]; read-out: Cytotoxicity ED50, MCF-7, MCF-7, MTT, six days) | IC50 ([7]; read-out: Cytotoxicity ED50, HT-29, HT-29, MTT, six days) | IC50 ([8]; read-out: cytotoxicity ED50, in at least four cell lines)
COc1ccc(NCc2cc(OC)c(OC)c(OC)c2)cc1 [compound 12a, 3,4,5-Trimethoxy-N-(4-methoxyphenyl)benzylamine] | 1.9 nM | only modest inhibitory effects on tubulin polymerization | 23000 nM | 3 -fold | 1.6 nM | 34% | 2.4 nM | 0.7 nM | 1 nM | ~1 nM | < 1000 nM | only an order of magnitude less cytotoxic than 8a | – | – | – | – | – | – | –
COc1cc(/C=C\c2ccccc2)cc(OC)c1OC [compound 5f, (Z)-1-Phenyl-2-(3,4,5-trimethoxyphenyl)ethene] | 170 nM | – | 36000 nM | – | > 25000 nM | 14% | 250 nM | 120 nM | 84 nM | – | – | decreased the activity drastically | – | – | – | – | – | – | –
COc1cc(/C=C\c2ccc(N(C)C)cc2)cc(OC)c1OC [compound 5n, (Z)-1-[4-(N,N-Dimethylamino)phenyl)-2-(3,4,5-trimethoxyphenyl)ethene] | 4.1 nM | strong inhibitors of tubulin polymerization; also recorded: small reductions | 3400 nM and 3500 nM | – | 9.4 nM | 83% | 5.8 nM | 0.15 nM | 8.1 nM | < 100 nM | < 1000 nM | – | – | – | – | – | – | – | –
COc1ccc(/C=C\c2cc(OC)cc(OC)c2)cc1 [15i, (Z)-1-(3,5-Dimethoxyphenyl)-2-(4-methoxyphenyl)ethene] | 130 nM | – | – | – | 98 nM | – | 160 nM | 420 nM | 340 nM | – | – | – | 3800 nM | ~100 nM | – | – | – | – | –
CCNC(=O)/C(=C/c1ccc(OC)cc1)c1cc(OC)c(OC)c(OC)c1 [compound 24d, (E)-N-Ethyl-[3-(4-methoxyphenyl)-2-(3,4,5-trimethoxyphenyl)]-prop-2-enoamide] | 3400 nM | – | – | – | > 25000 nM | – | 3700 nM | 7050 nM | 1800 nM | – | – | did not show considerable cytotoxicity | > 40000 nM | – | – | – | – | – | –
COc1ccc(CCc2cc(OC)c(OC)c(OC)c2)cc1 [compound 8a, 1-(4-Methoxyphenyl)-2-(3,4,5-trimethoxyphenyl)ethane] | 0.18 nM | strong inhibitors of tubulin polymerization | 7900 nM | ~4 -fold | 0.18 nM | 65% | 0.16 nM | 0.14 nM | 0.25 nM | ~0.2 nM | < 1000 nM | more cytotoxic than dihydrocombretastatin A-4 (1c) in all five cancer cell lines | – | – | – | – | – | – | –
COc1cccc(/C=C\c2cc(OC)c(OC)c(OC)c2)c1 [compound 5b, (Z)-1-(3-Methoxyphenyl)-2-(3,4,5-trimethoxy-phenyl)ethene] | – | strong inhibitors of tubulin polymerization; also recorded: active as inhibitors of tubulin polymerization | 8800 nM | 4 -fold | – | 50% | – | 60 nM | – | – | – | decreased the activity drastically | – | < 1000 nM | 130 nM | 1400 nM | 140 nM | 90 nM | –
COc1ccc(CC(C#N)c2cc(OC)c(OC)c(OC)c2)cc1 (stereo not shown) [compound 17h, 3-(4-Methoxyphenyl)-2-(3,4,5-trimethoxyphenyl)propanonitrile] | 9.6 nM | – | – | – | 1600 nM | – | 14 nM | 4.1 nM | 7.5 nM | – | – | – | 11000 nM | – | – | – | – | – | < 1000 nM
CCN(CC)CCOC(=O)/C(=C/c1ccc(OC)cc1)c1cc(OC)c(OC)c(OC)c1 [24e, (E)-(2-N,N-Diethylamino)ethyl-3-(4-methoxyphenyl)-2-(3,4,5-trimethoxyphenyl)-prop-2-enoate] | 1800 nM | – | – | – | > 25000 nM | – | 2100 nM | 2700 nM | 2800 nM | – | – | did not show considerable cytotoxicity | > 40000 nM | – | – | – | – | – | –
CCN(CC)CCOC(=O)/C(=C/c1cccc(OC)c1)c1cc(OC)c(OC)c(OC)c1 [24f, (E)-(2-N,N-Diethylamino)ethyl-3-(3-methoxyphenyl)-2-(3,4,5-trimethoxyphenyl)-prop-2-enoate] | 7700 nM | – | – | – | > 25000 nM | – | 10400 nM | 6700 nM | > 25000 nM | – | – | did not show considerable cytotoxicity | > 40000 nM | – | – | – | – | – | –
